US20090045056A1, “Stable three enzyme creatinine biosensor” (priority 2004, published 2009)
Each block holds one compound with its values, some of them ahead of it.

How the values were obtained:
[1] = system: creatine amidinohydrolase; assay: Additives to prevent silver inhibition of creatine amidinohydrolase; assay type: biochemical, Actinobacilus sp.; settings: 50 mM additive, pre-incubation
Experimental: Creatine amidinohydrolase (1.0 mg/ml) was prepared in solution with either 50 mM EDT A, 50 mM EGT A, 50 mM mercaptoethanol, 50 mM DTT or 50 mM cysteine with 20 mM Tris, pH 7.5.

sarcosine oxidase [2] = biological target: T1, sarcosine oxidase (Bacillus sp., UniProt P40859); settings: cited from earlier work; for Ki: inhibitor of sarcosine oxidase
T1 sequence (P40859 1-390): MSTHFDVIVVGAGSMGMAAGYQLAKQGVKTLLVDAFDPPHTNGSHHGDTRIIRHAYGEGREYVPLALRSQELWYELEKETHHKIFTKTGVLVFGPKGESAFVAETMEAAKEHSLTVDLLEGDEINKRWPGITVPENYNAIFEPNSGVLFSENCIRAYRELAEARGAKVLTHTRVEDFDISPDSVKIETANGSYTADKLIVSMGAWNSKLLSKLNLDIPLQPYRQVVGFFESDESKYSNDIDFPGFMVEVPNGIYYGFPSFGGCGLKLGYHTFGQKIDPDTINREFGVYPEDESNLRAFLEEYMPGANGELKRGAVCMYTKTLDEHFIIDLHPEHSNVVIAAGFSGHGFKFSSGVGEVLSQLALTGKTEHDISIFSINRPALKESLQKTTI

[3] = system: creatinine amidohydrolase; settings: silver nitrate from 1 nM, 5 min to 1 hr incubation
Experimental: An enzyme solution (0.1 mL) was incubated with a mixture (0.90 mL) of 100 mM creatine in mM soditim phosphate (pH 7.5) at 37° C. for 10 minutes. After 10 minutes, the creatine/enzyme mixture (0.1 mL) was added to 0.5 M sodium hydroxide (1.9 mL) and 1% picric acid (1.0 mL). This solution was incubated for 20 minutes at room temperature and the absorbance at 520 nm was measured. One unit was defined as the amount of enzyme which catalyzed the formation of 1 μmol of creatinine per minute.
Samples were removed periodically and assayed using the end point assay.

sarcosine oxidase [4] = biological target: sarcosine oxidase (Arthrobacter sp., UniProt P40873); settings: 1 nM to 1 mM silver nitrate, various incubation times, residual activity assayed in absence of silver
sarcosine oxidase (Arthrobacter sp., UniProt P40873), sequence (P40873 whole entry): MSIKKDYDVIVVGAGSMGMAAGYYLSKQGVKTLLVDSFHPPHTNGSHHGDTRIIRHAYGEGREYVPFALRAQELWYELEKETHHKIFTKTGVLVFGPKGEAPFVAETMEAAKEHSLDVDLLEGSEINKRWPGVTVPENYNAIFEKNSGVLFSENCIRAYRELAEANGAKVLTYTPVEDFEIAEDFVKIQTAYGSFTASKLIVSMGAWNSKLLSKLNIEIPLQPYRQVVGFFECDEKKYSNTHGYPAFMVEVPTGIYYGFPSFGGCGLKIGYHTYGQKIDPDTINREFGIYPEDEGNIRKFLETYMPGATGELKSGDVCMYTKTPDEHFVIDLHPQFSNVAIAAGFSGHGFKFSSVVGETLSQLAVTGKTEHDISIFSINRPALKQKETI
Experimental: Typically, an enzyme solution (0.05 mL) was incubated with a mixture (1.0 mL total) of 95 mM sarcosine, 0.47 mM 4-aminoantipyrene, 2 mM phenol, 0.045% Triton X-100, 50 mM sodium phosphate (pH 8.0) and 5 units/mL of horseradish peroxidase at 37° C. for 10 minutes. The reaction was terminated by addition of 2.0 mL of 0.25% SDS solution and the absorbance at 500 nm was measured. One unit was defined as the amount of enzyme that catalyzed the oxidation of 1). mol of substrate per minute.
Samples were removed periodically and assayed using the end point assay for sarcosine oxidase activity.

[5] = system: creatine amidinohydrolase; settings: 5-100 μM silver nitrate
Experimental: Creatine amidinohydrolase activity was monitored using a colorimetric assay that measures urea formation from the hydrolysis of creatine (Tsuchida and Yoda, Clin. Chem. 29:51-55 (1983)). An enzyme solution (0.1 mL) was incubated with a mixture (0.90 mL) of 100 mM creatine in sodium phosphate buffer (50 mM, pH 7.5) at 37° C. for 10 minutes. The reaction was stopped by adding 2.0 mL of a solution containing Ehrlich's reagent (2.0 g of p-dimethyl aminobenzaldehyde in 100 mL of dimethyl sulfoxide plus 15 mL of concentrated HCl). The solution was incubated for 20 minutes at room temperature and the absorbance at 435 nm was measured. One unit was defined as the amount of enzyme that catalyzes the hydrolysis of 1 μmol of substrate per minute.
Samples were removed periodically and assayed using the end point assay. […] After 10 minutes of incubation, the stop solution (p-dimethyl benzaldehyde solution) was added.

prevention of silver inhibition of creatine amidinohydrolase [1]: effectively prevented
SMILES: O[C@@H](CS)[C@@H](O)CS [DTT]

prevention of silver inhibition of creatine amidinohydrolase [1]: effectively prevented
SMILES: OCCS [mercaptoethanol]

prevention of silver inhibition of creatine amidinohydrolase [1]: effectively prevented
SMILES: N[C@@H](CS)C(=O)O [cysteine]

SMILES: CNCC(=O)O [sarcosine]
Km (sarcosine oxidase [2]; native substrate of sarcosine oxidase): 600 µM

SMILES: O=C(O)c1ccc[nH]1 [Pyrrole-2-carboxylic acid]
Ki (sarcosine oxidase [2]): 1370 µM

SMILES: CSCC(=O)O [(methylthio)acetic acid]
Ki (sarcosine oxidase [2]): 2600 µM

SMILES: O=[N+]([O-])[O-].[Ag+] [silver nitrate]
inhibition of creatinine amidohydrolase by silver ions [3]: effective inhibitor of creatinine amidinohydrolase at high concentrations
inhibition of sarcosine oxidase by silver ions (sarcosine oxidase [4]): effective irreversible inhibitor
inhibition of creatine amidinohydrolase by silver ions [5]: completely inhibiting enzyme activity
